This is an account of results in patent US4521538A (Medosan Industrie Biochimiche Riunite S.p.A., priority 1982, dated 1985).

The structures appear in SMILES notation. Where a name gives a salt, the structure may show the parent alone. Read-outs that look alike come from different tables or passages of the source.

A short description of series [1]: Mucolytic activity in vitro, consistency of human expectoration. As to conditions: 12 experiments. The method, then: The experiment was carried out "in vitro" according to the method of R. S. Hirsch (Bull. […] Table IV lists the percentage decrease of the expectoration consistency provoked by the compound of this invention in comparison with dithiothreitol and acetylcysteine which are known mucolytic agents.

Series [2] in a line: Antiinflammatory activity, carrageenin-induced oedema test. The series is classed as in vivo, rats. On the procedure:
This effect was evaluated by means of an experimental model reproducing acute inflammation in rats: for this purpose the carrageenin-induced oedema test was employed following the method described by C. A. Winter (J. Pharmac. Exp. […] Wong, J. F. Gardocki and T. P. Pruss, J. Pharmac. Exp. Ther. 185 (1): 127, 1973). Table I lists the tested compounds, the concentration thereof, routes of administration and relative percentage oedema inhibitions; the data are commented upon at the end of the Tables.
(In general: Carrageenan injected into the paw causes an acute inflammation.)

Series [3] is described as follows: Analgesic activity, phenylquinone-induced writhing test. The class given is in vivo. On the procedure: The inhibiting effect on the abdominal contractions induced by phenyl-p-quinone was calculated by the following formula: [formula]
Table II lists the doses, routes of administration and their efficacy expressed as percentage of protection.
(In general: Writhing tests count abdominal constrictions after an irritant is injected.)

Series [4] is described as follows: Antitussive activity (method of Y. Kase). The series is classed as in vivo, albino male Guinea-pigs. The method, then:
The antitussive effect on albino male Guinea-pigs weighing 300 g was evaluated using the method described by Y. Kase (Selected Pharmacological Testing Methods, p. 363, Marcel Dekker Inc., New York, 1968).

The format of series [5] is in vivo, male Wistar rats. To be noted: for mean severity: scale 0 (no lesion) to 5 (perforations). The method, then: Male Wistar rats weighing 180 g were randomized into groups of 10. Three doses of each compound were administered. One group received the vehicle alone (10 ml/kg b.w.). Each dose was given orally for four days consecutively and the rats were sacrificed on the fifth day for necropsy. The ulcerogenic effect was evaluated by the following scale:
(1) each haemorrhagic point at least 1 mm in diameter was scored as 1 lesion,
(2) haemorrhagic points less than 1 mm in diameter were scored in the following manner:
(c) 20 to 29=three lesions
(2) gastric mucosal irritation without haemorrhage: 1
(3) haemorrhagic points less than 1 mm in diameter: 2
(4) haemorrhagic points between 1 and 3 mm in diameter: 3
(5) haemorrhagic points larger than 3 mm in diameter: 4
By means of this scale it was possible to obtain the gastric damage index: [formula]

For the compound `O[C@H](CS)[C@H](O)CS` (racemic) [Dithiothreitol], the “% decrease of expectoration consistency” value in series [1] (0.1 M (1.5%)) is 90%.

With `COc1ccc2c(c1)c(CC(=O)O)c(C)n2C(=O)c1ccc(Cl)cc1` [Indomethacin], the Oedema % inhibition in series [2] (2.5 mg/kg i.p., 2 h) is recorded as 21.0%; in series [2] (2.5 mg/kg i.p., 4 h) it was 20.0%; in series [2] (2.5 mg/kg i.p., 6 h), 17.0%; in series [2] (2.5 mg/kg i.p., 24 h), 2.5%; in series [2] (2.5 mg/kg per os, 2 h), 18.6%; in series [2] (2.5 mg/kg per os, 4 h), 20.7%. Further, the Oedema % inhibition amounted to 19.2% in series [2] (2.5 mg/kg per os, 6 h); 2.6% in series [2] (2.5 mg/kg per os, 24 h); 30.0% in series [2] (5 mg/kg i.p., 2 h); 29.0% in series [2] (5 mg/kg i.p., 4 h); 23.0% in series [2] (5 mg/kg i.p., 6 h); 3.4% in series [2] (5 mg/kg i.p., 24 h). Further, the Oedema % inhibition in series [2] (5 mg/kg per os, 2 h) came out at 26.3%; in series [2] (5 mg/kg per os, 4 h), 29.1%; in series [2] (5 mg/kg per os, 6 h), 28.5%; in series [2] (5 mg/kg per os, 24 h), 2.7%; in series [2] (10 mg/kg i.p., 2 h), 49.7%; in series [2] (10 mg/kg i.p., 4 h), 46.0%. In addition, the Oedema % inhibition is on record as 48.1% in series [2] (10 mg/kg i.p., 6 h); 8.0% in series [2] (10 mg/kg i.p., 24 h); 48.2% in series [2] (10 mg/kg per os, 2 h); 49.0% in series [2] (10 mg/kg per os, 4 h); 46.0% in series [2] (10 mg/kg per os, 6 h); 7.9% in series [2] (10 mg/kg per os, 24 h).

Turning to `Cc1ccc(C(=O)c2ccc(CC(=O)O)n2C)cc1` [Tolmetin Na.2H2 O, 1-mehtyl-5-p-toluoyl-2-acetic acid sodium salt dihydrate], the Oedema % inhibition in series [2] (25 mg/kg i.p., 2 h) is given as 28.0%; in series [2] (25 mg/kg i.p., 4 h), 29.1%; in series [2] (25 mg/kg i.p., 6 h), 32.1%; in series [2] (25 mg/kg i.p., 24 h) it was 8.9%; in series [2] (25 mg/kg per os, 2 h) it was 24.6%; in series [2] (25 mg/kg per os, 4 h), 26.2%. Moreover, the Oedema % inhibition in series [2] (25 mg/kg per os, 6 h) was 30.1%; in series [2] (25 mg/kg per os, 24 h), 6.2%; in series [2] (50 mg/kg i.p., 2 h) it was 47.0%; in series [2] (50 mg/kg i.p., 4 h) it was 49.1%; in series [2] (50 mg/kg i.p., 6 h), 40.0%; in series [2] (50 mg/kg i.p., 24 h) it was 7.1%. In addition, the Oedema % inhibition in series [2] (50 mg/kg per os, 2 h) is 43.1%; in series [2] (50 mg/kg per os, 4 h) it was 46.0%; in series [2] (50 mg/kg per os, 6 h) it was 41.3%; in series [2] (50 mg/kg per os, 24 h), 9.1%; in series [2] (100 mg/kg i.p., 2 h) it was 64.1%; in series [2] (100 mg/kg i.p., 4 h), 65.8%. Also, the Oedema % inhibition in series [2] (100 mg/kg i.p., 6 h) stood at 60.2%; in series [2] (100 mg/kg i.p., 24 h), 11.2%; in series [2] (100 mg/kg per os, 2 h), 60.8%; in series [2] (100 mg/kg per os, 4 h), 60.0%; in series [2] (100 mg/kg per os, 6 h) it was 64.5%; in series [2] (100 mg/kg per os, 24 h), 14.6%. Besides, the “% protection” value is given as 16.5% in series [3] (5 mg/kg i.p.); 15.0% in series [3] (5 mg/kg per os); 46.2% in series [3] (10 mg/kg i.p.); 40.6% in series [3] (10 mg/kg per os); 69.1% in series [3] (20 mg/kg i.p.); 62.0% in series [3] (20 mg/kg per os). The “% inhibition, amplitude of coughs” value in series [4] (50 mg/kg i.p.) worked out at 0%; in series [4] (50 mg/kg per os), 0%; in series [4] (75 mg/kg i.p.) it was 0%; in series [4] (75 mg/kg per os) it was 7%; in series [4] (100 mg/kg i.p.), 7%; in series [4] (100 mg/kg per os) it was 5%. Moreover, the “% inhibition, frequency of coughs” value in series [4] (50 mg/kg i.p.) is 0%; in series [4] (50 mg/kg per os), 0%; in series [4] (75 mg/kg i.p.), 10%; in series [4] (75 mg/kg per os), 0%; in series [4] (100 mg/kg i.p.), 10%; in series [4] (100 mg/kg per os) it was 5%. Moreover, the mean severity in series [5] (50 mg/kg orally, four days) is reported as 2; in series [5] (100 mg/kg orally, four days), 3.5; in series [5] (200 mg/kg orally, four days), 4. For the same compound, the “mean No. of lesions” value worked out at 2.5 in series [5] (100 mg/kg orally, four days); 3 in series [5] (200 mg/kg orally, four days); 2 in series [5] (rat, in vivo).

In the case of `CC(=O)N[C@@H](CS)C(=O)O` [acetylcysteine], the “% decrease of expectoration consistency” value in series [1] ([…] (20.0%)) worked out at 81%.
